These molecules were tested against T1, human CB2R (Homo sapiens, UniProt P34972) (assay: CB2R mediated modulation of cAMP synthesis). Conditions: 0.5 h; CHO cells expressing human CB2R; cAMP inhibited by 1 uM CP55940 defined as 100%; read-out: Agonist Efficacy (%).
T1 construct: host or cells: CHO cells
Assay type: cell-based
Summary of the method: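 Forskolin (10 uM)-driven cAMP in human CB2R-expressing CHO cells, read with DiscoverX-XS kit after 30 min compound exposure at 37 °C, 1 mM IBMX, 0.25% BSA. 100% defined as forskolin cAMP relative to 1 uM CP55940 inhibition. Agonist EC50 via four-parameter logistic model.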

T1 sequence (P34972 whole entry): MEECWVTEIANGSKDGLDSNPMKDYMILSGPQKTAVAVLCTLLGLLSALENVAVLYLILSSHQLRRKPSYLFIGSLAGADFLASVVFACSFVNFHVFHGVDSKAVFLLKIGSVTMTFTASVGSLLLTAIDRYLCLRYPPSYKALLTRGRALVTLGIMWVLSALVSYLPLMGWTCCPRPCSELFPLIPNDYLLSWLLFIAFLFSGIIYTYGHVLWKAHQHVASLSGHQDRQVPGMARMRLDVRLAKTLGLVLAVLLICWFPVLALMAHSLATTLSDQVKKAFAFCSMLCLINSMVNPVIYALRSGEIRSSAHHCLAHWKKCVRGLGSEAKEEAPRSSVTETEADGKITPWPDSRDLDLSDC

Emax	SMILES
91%	O=C(Nc1nc(C2CC2)cs1)N1CCCN(C(=O)c2ccc(Cl)cc2)CC1 [Compound 166, 4-(4-Chloro-benzoyl)-[1,4]diazepane-1-carboxylic acid (4-cyclopropyl-thiazol-2-yl)-amide]
100%	Cc1nc(NC(=O)N2CCCN(C(=O)C3CCOCC3)CC2)sc1C(C)(C)C [Compound 183, 4-(Tetrahydro-pyran-4-carbonyl)-[1,4]diazepane-1-carboxylic acid (5-tert-butyl-4-methyl-thiazol-2-yl)-amide]
109%	CC(C)(C)c1ccc(NC(=O)N2CCCN(C(=O)c3ccc(C#N)cc3)CC2)cc1 [Compound 112, 4-(4-Cyano-benzoyl)-[1,4]diazepane-1-carboxylic acid (4-tert-butyl-phenyl)-amide]
102%	CC(C)c1ccc(NC(=O)N2CCCN(C(=O)C3CCCCC3)CC2)cc1 [Compound 34, 4-Cyclohexanecarbonyl-[1,4]diazepane-1-carboxylic acid (4-isopropyl-phenyl)-amide]
95%	CC(C)(C)c1cnc(NC(=O)N2CCCN(C(=O)N3CCS(=O)(=O)CC3)CC2)s1 [Compound 214, 4-(1,1-Dioxo-1 λ^6-thiomorpholine-4-carbonyl)-[1,4]diazepane-1-carboxylic acid (5-tert-butyl-thiazol-2-yl)-amide]

Same assay, conditions: found through the use of the described assays (CB2 agonists); qualitative statement

agonistic activity	SMILES
agonistic activity	O=C(Nc1nc(-c2ccccc2)cs1)N1CCCN(C(=O)c2ccc(Cl)cc2)CC1 [4-(4-Chloro-benzoyl)-[1,4]diazepane-1-carboxylic acid (4-phenyl-thiazol-2-yl)-amide]
agonistic activity	O=C(CCC1CCCC1)N1CCCN(C(=O)Nc2ccc(C(F)(F)F)cc2)CC1 [4-(3-Cyclopentyl-propionyl)-[1,4]diazepane-1-carboxylic acid (4-trifluoromethyl-phenyl)-amide]
agonistic activity	O=C(CCC1CCCC1)N1CCCN(C(=O)NC2CCCCC2)CC1 [4-(3-Cyclopentyl-propionyl)-[1,4]diazepane-1-carboxylic acid cyclohexylamide]
agonistic activity	Cc1ccc(C(=O)N2CCCN(C(=O)Nc3ccc4ccccc4c3)CC2)cc1 [4-(4-Methyl-benzoyl)-[1,4]diazepane-1-carboxylic acid naphthalen-2-ylamide]
agonistic activity	Cc1nc(NC(=O)N2CCCN(C(=O)C3CCOCC3)CC2)sc1C [4-(Tetrahydro-pyran-4-carbonyl)-[1,4]diazepane-1-carboxylic acid (4,5-dimethyl-thiazol-2-yl)-amide]
agonistic activity	O=C(CC1CCCC1)N1CCCN(C(=O)Nc2ccc3c(c2)OC(F)(F)O3)CC1 [4-(2-Cyclopentyl-acetyl)-[1,4]diazepane-1-carboxylic acid (2,2-difluoro-benzo[1,3]dioxol-5-yl)-amide]
agonistic activity	CCCc1ccc(NC(=O)N2CCCN(C(=O)CCC3CCCC3)CC2)cc1 [4-(3-Cyclopentyl-propionyl)-[1,4]diazepane-1-carboxylic acid (4-propyl-phenyl)-amide]
agonistic activity	CCC(C)c1ccc(NC(=O)N2CCCN(C(=O)C3CCOCC3)CC2)nc1 (centres unmarked) [4-(Tetrahydro-pyran-4-carbonyl)-[1,4]diazepane-1-carboxylic acid (5-sec-butyl-pyridin-2-yl)-amide]
agonistic activity	CCC(C)c1ccc(NC(=O)N2CCCN(C(=O)C3CCOCC3)CC2)cc1 (centres unmarked) [4-(Tetrahydro-pyran-4-carbonyl)-[1,4]diazepane-1-carboxylic acid (4-sec-butyl-phenyl)-amide]
agonistic activity	CC(C)(C)c1cc(NC(=O)N2CCCN(C(=O)N3CCOCC3)CC2)on1 [4-(Morpholine-4-carbonyl)-[1,4]diazepane-1-carboxylic acid (3-tert-butyl-isoxazol-5-yl)-amide]
agonistic activity	CC(C)(C)c1ccc(NC(=O)N2CCCN(C(=O)C3CCCC3)CC2)cc1 [4-Cyclopentanecarbonyl-[1,4]diazepane-1-carboxylic acid (4-tert-butyl-phenyl)-amide]
agonistic activity	CC(C)(C)c1ccc(NC(=O)N2CCCN(C(=O)c3ccc(C#N)cc3)CC2)cc1 [4-(4-Cyano-benzoyl)-[1,4]diazepane-1-carboxylic acid (4-tert-butyl-phenyl)-amide]
agonistic activity	CC(C)c1ccc(NC(=O)N2CCCN(C(=O)CC3CCOCC3)CC2)cc1 [4-(2-Tetrahydro-pyran-4-yl-acetyl)-[1,4]diazepane-1-carboxylic acid (4-isopropyl-phenyl)-amide]
agonistic activity	O=C(CCC1CCCC1)N1CCCN(C(=O)Nc2ccc3ccccc3c2)CC1 [4-(3-Cyclopentyl-propionyl)-[1,4]diazepane-1-carboxylic acid naphthalen-2-ylamide]
agonistic activity	O=C(Nc1ccc2ccccc2c1)N1CCCN(C(=O)C2CCOCC2)CC1 [4-(Tetrahydro-pyran-4-carbonyl)-[1,4]diazepane-1-carboxylic acid naphthalen-2-ylamide]
agonistic activity	Cc1onc(NC(=O)N2CCCN(C(=O)C3CCOCC3)CC2)c1C
agonistic activity	CC(C)(C)c1cnc(NC(=O)N2CCCN(C(=O)N3CCS(=O)(=O)CC3)CC2)s1 [4-(1,1-Dioxo-1λ^6-thiomorpholine-4-carbonyl)-[1,4]diazepane-1-carboxylic acid (5-tert-butyl-thiazol-2-yl)-amide]
agonistic activity	CC(C)c1ccc(NC(=O)N2CCCN(C(=O)CCC(F)(F)F)CC2)cc1 [4-(4,4,4-Trifluoro-butyryl)-[1,4]diazepane-1-carboxylic acid (4-isopropyl-phenyl)-amide]
agonistic activity	CC(C)CCC(=O)N1CCCN(C(=O)Nc2ccc(C(C)C)cc2)CC1 [4-(4-Methyl-pentanoyl)-[1,4]diazepane-1-carboxylic acid (4-isopropyl-phenyl)-amide]
agonistic activity	CC(C)(C)c1cc(NC(=O)N2CCCN(C(=O)CN3CCS(=O)(=O)CC3)CC2)on1 [4-[2-(1,1-Dioxo-1λ^6-thiomorpholin-4-yl)-acetyl]-[1,4]diazepane-1-carboxylic acid (3-tert-butyl-isoxazol-5-yl)-amide]
agonistic activity	O=C(Nc1ccc(SC(F)(F)F)cc1)N1CCCN(C(=O)C2CCOCC2)CC1 [4-(Tetrahydro-pyran-4-carbonyl)-[1,4]diazepane-1-carboxylic acid (4-trifluoromethylsulfanyl-phenyl)-amide]
agonistic activity	CC(C)(C)c1cc(NC(=O)N2CCCN(C(=O)Nc3ccccc3)CC2)no1
agonistic activity	CC(C)(C)c1ccc(NC(=O)N2CCCN(C(=O)CN3CCCCC3)CC2)cc1 [4-(2-Piperidin-1-yl-acetyl)-[1,4]diazepane-1-carboxylic acid (4-tert-butyl-phenyl)-amide]
agonistic activity	CC(C)c1ccc(NC(=S)N2CCCN(C(=O)CC3CCCC3)CC2)cc1 [4-(2-Cyclopentyl-acetyl)-[1,4]diazepane-1-carbothioic acid (4-isopropyl-phenyl)-amide]
agonistic activity	C[C@@H]1CN(C(=O)N2CCCN(C(=O)Nc3cc(C(C)(C)C)on3)CC2)C[C@H](C)O1 [4-((2R,6S)-2,6-Dimethyl-morpholine-4-carbonyl)-[1,4]diazepane-1-carboxylic acid (5-tert-butyl-isoxazol-3-yl)-amide]
agonistic activity	O=C(CCC1CCCC1)N1CCCN(C(=O)Nc2cccc3ccccc23)CC1 [4-(3-Cyclopentyl-propionyl)-[1,4]diazepane-1-carboxylic acid naphthalen-1-ylamide]
agonistic activity	CC(C)(C)c1ccc(NC(=O)N2CCCN(C(=O)CCC3CC3)CC2)cc1 [4-(3-Cyclopropyl-propionyl)-[1,4]diazepane-1-carboxylic acid (4-tert-butyl-phenyl)-amide]

SMILES	agonistic activity
CC(C)(C)c1cc(NC(=O)N2CCCN(C(=O)C3CCC(F)(F)CC3)CC2)no1 [4-(4,4-Difluoro-cyclohexanecarbonyl)-[1,4]diazepane-1-carboxylic acid (5-tert-butyl-isoxazol-3-yl)-amide]	agonistic activity
COC1CCC(C(=O)N2CCCN(C(=O)Nc3cc(C(C)(C)C)on3)CC2)CC1 (centres unmarked) [4-(4-Methoxy-cyclohexanecarbonyl)-[1,4]diazepane-1-carboxylic acid (5-tert-butyl-isoxazol-3-yl)-amide]	agonistic activity
CCc1ccc(NC(=O)N2CCCN(C(=O)CCC3CCCC3)CC2)cc1 [4-(3-Cyclopentyl-propionyl)-[1,4]diazepane-1-carboxylic acid (4-ethyl-phenyl)-amide]	agonistic activity
CC(C)(C)c1ccc(NC(=O)N2CCCN(C(=O)c3cc(Cl)cc(Cl)c3)CC2)cc1 [4-(3,5-Dichloro-benzoyl)-[1,4]diazepane-1-carboxylic acid (4-tert-butyl-phenyl)-amide]	agonistic activity
CCC(C)c1cc(NC(=O)N2CCCN(C(=O)C3CCOCC3)CC2)on1 (centres unmarked) [4-(Tetrahydro-pyran-4-carbonyl)-[1,4]diazepane-1-carboxylic acid (3-sec-butyl-isoxazol-5-yl)-amide]	agonistic activity
CC(C)(C)c1cc(NC(=O)N2CCCN(C(=O)C3CCCOC3)CC2)no1 (centres unmarked) [4-(Tetrahydro-pyran-3-carbonyl)-[1,4]diazepane-1-carboxylic acid (5-tert-butyl-isoxazol-3-yl)-amide]	agonistic activity
O=C(CC1CCCC1)N1CCCN(C(=O)Nc2ccc(-c3ccccc3)cc2)CC1 [4-(2-Cyclopentyl-acetyl)-[1,4]diazepane-1-carboxylic acid (4-biphenyl)-amide]	agonistic activity

Same assay, conditions: read-out: hCB2 cAMP EC50

EC50	SMILES
0.09 µM	O=C(Nc1nc(C2CC2)cs1)N1CCCN(C(=O)c2ccc(Cl)cc2)CC1 [Compound 166, 4-(4-Chloro-benzoyl)-[1,4]diazepane-1-carboxylic acid (4-cyclopropyl-thiazol-2-yl)-amide]
0.018 µM	Cc1nc(NC(=O)N2CCCN(C(=O)C3CCOCC3)CC2)sc1C(C)(C)C [Compound 183, 4-(Tetrahydro-pyran-4-carbonyl)-[1,4]diazepane-1-carboxylic acid (5-tert-butyl-4-methyl-thiazol-2-yl)-amide]
0.019 µM	CC(C)(C)c1ccc(NC(=O)N2CCCN(C(=O)c3ccc(C#N)cc3)CC2)cc1 [Compound 112, 4-(4-Cyano-benzoyl)-[1,4]diazepane-1-carboxylic acid (4-tert-butyl-phenyl)-amide]
0.023 µM	CC(C)c1ccc(NC(=O)N2CCCN(C(=O)C3CCCCC3)CC2)cc1 [Compound 34, 4-Cyclohexanecarbonyl-[1,4]diazepane-1-carboxylic acid (4-isopropyl-phenyl)-amide]
0.02 µM	CC(C)(C)c1cnc(NC(=O)N2CCCN(C(=O)N3CCS(=O)(=O)CC3)CC2)s1 [Compound 214, 4-(1,1-Dioxo-1 λ^6-thiomorpholine-4-carbonyl)-[1,4]diazepane-1-carboxylic acid (5-tert-butyl-thiazol-2-yl)-amide]
